Test results taken from patent publication US20260207560A1, “PLURALITY OF GRANULES” (priority 2022, published 2026).
Values joined by “and” are separate entries in the source; they are usually repeats but may differ in a detail not shown here. Equal entries are not always repeated.

Test: Stability of active ingredient in volatile solvents, 20-28 hours at ambient (UPLC assay and impurities)
Conditions: for Assay (as % of nominal): vial replicates
Method: Note the incubation for the stability studies were all performed in a similar way: • All were put into 4 mL amber glass vials. • The Initial samples were not analysed as soon as sampled but instead were frozen at −20° C. until the point of analysing the incubated samples (e.g after 28 days at 25, 40 or 50° C.) to avoid degradation of the active ingredient.
Chemical stability was determined by assay (results in Table 8) and quantification of potential active ingredient related substances (shown in
Table 9). […] The objective was to establish whether any active ingredient-related substances might be increasing as a result of the ambient hold.

[1] = 5% SLS aq., Initial, listed as active ingredient
[2] = Ethanol absolute, 24 hour, listed as active ingredient
[3] = Ethanol absolute, Initial, listed as active ingredient
[4] = pH 3 citric acid buffer, 24 hour
[5] = pH 3 citric acid buffer, 24 hour, listed as active ingredient
[6] = pH 3 citric acid buffer, Initial
[7] = pH 3 citric acid buffer, Initial, listed as active ingredient

## CCS(=O)(=O)Nc1ccc2c(c1)nc(C(C)(C)C)n2CC1CCC(F)(F)CC1 [Compound I, N-(2-(tert-butyl)-1-((4,4-difluorocyclohexyl)methyl)-1H-benzimidazol-5-yl)ethanesulfonamide]
[1]
  Impurity peak area, Total: 0.96 % of Total and 0.88 % of Total
  Impurity peak area, Total excluding artifact: 0.96 % of Total and 0.88 % of Total
  Assay (as % of nominal): 105.0 % of nominal and 101.7 % of nominal
Ethanol Absolute, 24 hours ambient
  Assay (as % of nominal), Mean: 99.0 % of nominal
Ethanol Absolute, 24 hours ambient, listed as active ingredient
  Assay (as % of nominal): 100.2 % of nominal and 97.7 % of nominal
Ethanol Absolute, Initial
  Assay (as % of nominal): 107.1 % of nominal
Ethanol Absolute, Initial, listed as active ingredient
  Assay (as % of nominal): 90.6 % of nominal
Ethanol absolute, 24 hour
  Impurity peak area, RRT 0.86^$ (PDA spectra unrelated to the active ingredient): <0.05 % of Total
  Impurity peak area, RRT 0.92: <0.05 % of Total
  Impurity peak area, RRT 1.04*: <0.05 % of Total
  Impurity peak area, RRT 1.23*: 0.07 % of Total
  Impurity peak area, RRT 1.24*: <0.05 % of Total
  Impurity peak area, RRT 1.35*: 0.08 % of Total
  Impurity peak area, RRT 1.36*: 0.06 % of Total
[2]
  Impurity peak area, RRT 0.84*: 0.33 % of Total and 0.35 % of Total
  Impurity peak area, RRT 0.98* (first row): 0.22 % of Total and 0.20 % of Total
  Impurity peak area, RRT 0.98* (second row): 0.13 % of Total and 0.14 % of Total
  Impurity peak area, Total: 0.89 % of Total and 0.90 % of Total
  Impurity peak area, Total excluding artifact: 0.89 % of Total and 0.90 % of Total
Ethanol absolute, Initial
  Assay (as % of nominal), Mean: 98.8 % of nominal
  Impurity peak area, RRT 0.38: 0.07 % of Total
  Impurity peak area, RRT 0.61: 0.08 % of Total
  Impurity peak area, RRT 0.62: 0.09 % of Total
  Impurity peak area, RRT 0.83: 0.18 % of Total
  Impurity peak area, RRT 0.92: <0.05 % of Total
  Impurity peak area, RRT 0.98* (second row): 0.12 % of Total
  Impurity peak area, RRT 1.24*: <0.05 % of Total
  Impurity peak area, RRT 1.36*: 0.06 % of Total
[3]
  Impurity peak area, RRT 0.84*: 0.37 % of Total and 0.33 % of Total
  Impurity peak area, RRT 0.98* (first row): 0.20 % of Total and 0.22 % of Total
  Impurity peak area, RRT 1.04*: 0.05 % of Total and <0.05 % of Total
  Impurity peak area, RRT 1.23*: 0.08 % of Total and 0.07 % of Total
  Impurity peak area, RRT 1.35*: 0.08 % of Total and 0.09 % of Total
  Impurity peak area, Total: 0.96 % of Total and 1.47 % of Total
  Impurity peak area, Total excluding artifact: 0.96 % of Total and 0.89 % of Total
Four volatile solvents, 20-28 hour hold at ambient temperature
  Degradation of the active ingredient: no evidence for any active ingredient degradation
Four volatile solvents, initial and 20-28 hour ambient hold
  Total impurities, highest in any case: ≤ 1.17 % of the total peak area
[4]
  Impurity peak area, RRT 0.92: 0.06 % of Total
  Impurity peak area, RRT 1.04*: 0.09 % of Total
  Impurity peak area, RRT 1.23*: 0.10 % of Total
[5]
  Impurity peak area, RRT 0.38: 0.26 % of Total and 0.14 % of Total
  Impurity peak area, RRT 0.61: 0.07 % of Total and 0.10 % of Total
  Impurity peak area, RRT 0.62: 0.07 % of Total and 0.11 % of Total
  Impurity peak area, RRT 0.83: 0.30 % of Total and 0.16 % of Total
  Impurity peak area, RRT 0.84*: 0.30 % of Total and 0.37 % of Total
  Impurity peak area, RRT 0.98* (first row): 0.22 % of Total and 0.21 % of Total
  Impurity peak area, RRT 0.98* (second row): 0.13 % of Total and 0.14 % of Total
  Impurity peak area, RRT 1.24*: <0.05 % of Total and 0.06 % of Total
  Impurity peak area, Total: 1.88 % of Total and 1.82 % of Total
  Impurity peak area, Total excluding artifact: 0.90 % of Total and 1.03 % of Total
pH 3 citric acid buffer, 24 hours ambient
  Assay (as % of nominal), Mean: 95.8 % of nominal
pH 3 citric acid buffer, 24 hours ambient, listed as active ingredient
  Assay (as % of nominal): 109.6 % of nominal and 82.1 % of nominal
[6]
  Assay (as % of nominal), Mean: 109.6 % of nominal
  Impurity peak area, RRT 0.38: 0.27 % of Total
  Impurity peak area, RRT 0.41: 0.26 % of Total
  Impurity peak area, RRT 0.61: 0.05 % of Total
  Impurity peak area, RRT 0.62: 0.06 % of Total
  Impurity peak area, RRT 0.83: 0.21 % of Total
  Impurity peak area, RRT 0.86^$ (PDA spectra unrelated to the active ingredient): <0.05 % of Total
  Impurity peak area, RRT 1.04*: 0.09 % of Total
  Impurity peak area, RRT 1.24*: <0.05 % of Total
[7]
  Impurity peak area, RRT 0.92: 0.10 % of Total and 0.09 % of Total
  Impurity peak area, RRT 0.98* (first row): 0.23 % of Total and 0.21 % of Total
  Impurity peak area, RRT 0.98* (second row): 0.11 % of Total and 0.13 % of Total
  Impurity peak area, RRT 1.23*: 0.16 % of Total and 0.12 % of Total
  Impurity peak area, Total: 1.79 % of Total and 0.97 % of Total
  Impurity peak area, Total excluding artifact: 0.94 % of Total and 0.97 % of Total
  Assay (as % of nominal): 108.8 % of nominal and 110.4 % of nominal
